Experimental findings from EP4678638A1, “NEW E3 UBIQUITIN LIGASE LIGAND, PROTEIN DEGRADATION AGENT AND USE THEREOF” (priority 2023, dated 2024) are described below.

SMILES strings stand for the structures.

For one assay, the system named is MM.1R. Put plainly: CCK-8 proliferation, MM.1R. Format: cell-based. Particulars: CCK-8, 72 hours, read-out: Inhibitory activity (IC50) on tumor cell proliferation, MM.1R. As to the method:
(§1) The tumor cells used herein were cultured in a cell culture medium listed in table A1 at 37°C in an incubator with 5% CO2. Prior to experimentation, all cell lines used were correctly identified by STR profiling, and tested negative for mycoplasma contamination using a mycoplasma detection kit through routine screenings. Table A1. Tumor cells and cell culture medium used in the present disclosure
(§2) IC50 values of the compounds of the present disclosure (including the compounds in Table 1, and compounds of examples) were measured using the Meilun Cell Counting Kit-8 kit from Dalian Meilun Biotech Co., Ltd. Assay details are as follows: tumor cells were seeded in a 96-well plate at a density listed in Table A2. After 24h, 100 µL of the inoculated cells were treated with 0.5µL of the compounds of the present disclosure (including the compounds in Tables 1 and 2, and compounds of examples) at 10 different successively decreasing concentrations (starting at the highest concentration of 10µM; 5-fold serial dilutions). After the cells were treated with the compounds of the present disclosure for a period of time, the cell viability detection reagent was added to the culture medium for cell viability assessment according to the instructions provided with the CCK-8 kit. […] The growth inhibition of the compounds of the present disclosure on cells was plotted by Prism Graphpad software, and the IC50 values of the compounds of the present disclosure were calculated therefrom. […] Seeding protocol and treatment time for tumor cells

The next assay deals with SW620. Put plainly: CCK-8 proliferation, SW620. Particulars: Homo sapiens, SW-620; CCK-8; 96 hours; read-out: Inhibitory activity (IC50) on tumor cell proliferation, SW620. Format: cell-based. As to the method:
as §1, §2

For another assay, the system named is CCRF-CEM. Put plainly: CCK-8 proliferation, CCRF-CEM. The assay is classed as cell-based, Human. The following applies: Homo sapiens, CCRF-CEM; CCK-8; 96 hours; read-out: Inhibitory activity (IC50) on tumor cell proliferation, CCRF-CEM. Put shortly: (§3)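 CCK-8 viability readout; IC50 from growth-inhibition curve fitting. Cells plated, dosed 24h later with a 10-point series, top 10µM, 5-fold steps. Culture at 37°C, 5% CO2.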

The subject of a further assay is Jurkat. Nature of the assay: CCK-8 proliferation, Jurkat. Format: cell-based, Human. The following applies: Homo sapiens, Jurkat; CCK-8; 96 hours; read-out: Inhibitory activity (IC50) on tumor cell proliferation, Jurkat. Put shortly:
as §3

The target in assay [1] is T1, human Cereblon WT GST-tagged protein (Homo sapiens, UniProt Q96SW2).
T1 construct: purchased CISBIO 64BDCRBNPEH
T1 sequence (Q96SW2 whole entry): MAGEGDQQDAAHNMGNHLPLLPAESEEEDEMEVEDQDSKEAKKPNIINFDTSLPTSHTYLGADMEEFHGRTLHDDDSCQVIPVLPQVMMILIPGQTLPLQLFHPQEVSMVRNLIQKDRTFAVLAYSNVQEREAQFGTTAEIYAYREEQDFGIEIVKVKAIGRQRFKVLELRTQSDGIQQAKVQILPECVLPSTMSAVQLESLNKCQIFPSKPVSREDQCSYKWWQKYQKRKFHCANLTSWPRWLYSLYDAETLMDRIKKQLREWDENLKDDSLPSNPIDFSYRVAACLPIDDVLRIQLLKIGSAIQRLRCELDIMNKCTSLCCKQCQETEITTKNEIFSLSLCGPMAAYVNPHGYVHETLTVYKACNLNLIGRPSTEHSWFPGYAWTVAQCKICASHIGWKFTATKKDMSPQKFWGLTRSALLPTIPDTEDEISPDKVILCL
Nature of the assay: CRBN binding, HTRF (CEREBLON BINDING kit). Particulars: Table II-2, CRBN binding screening, HTRF. Put shortly: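 Competitive HTRF: GST-tagged human WT Cereblon mixed with compound, Thalidomide-Re tracer and GST Eu antibody, incubated 3 h at room temperature. Signals read at 620 and 665 nm.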
(In general: TR-FRET usually uses a lanthanide donor and a delayed reading to cut background.)

The subject of another assay is PC-9. Put plainly: CCK-8 proliferation, PC-9. The assay is classed as cell-based, Human. The following applies: Homo sapiens, PC-9; CCK-8; 96 hours; read-out: Inhibitory activity (IC50) on tumor cell proliferation, PC-9. Put shortly:
as §3

The subject of another assay is H1975. Put plainly: CCK-8 proliferation, NCI-H1975 (H1975). The assay is classed as cell-based, Human. The following applies: Homo sapiens, NCI-H1975; CCK-8; 96 hours; read-out: Inhibitory activity (IC50) on tumor cell proliferation, H1975. Put shortly: as §3
Assay [2] has as its system H1975-1µM Osimertinib cells. Nature of the assay: CCK-8 proliferation, osimertinib-resistant H1975 cells. The following applies: Homo sapiens, NCI-H1975; CCK-8; osimertinib-resistant H1975 cells obtained by treating H1975 cells with 1 µM Osimertinib for 3 months; read-out: Inhibitory activity (IC50) on tumor cell proliferation, H1975-1µm Osimertinib. Format: cell-based, Human. Put shortly:
as §3

The next assay relates to HCC827. Put plainly: CCK-8 proliferation, HCC827. The following applies: Homo sapiens, HCC827; CCK-8; 96 hours; read-out: Inhibitory activity (IC50) on tumor cell proliferation, HCC827. The assay is classed as cell-based, Human. Summed up:
as §3

Another assay has as its system EGFR. Put plainly: Western blot degradation of EGFR (H1975 Cell). The following applies: Table D2. The assay is classed as cell-based, Human. Put shortly: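 Degradation is assessed by immunoblotting lysates of treated cells. Target bands are quantified by grayscale and normalised to an internal control, so degradation rate equals 100% minus % remaining.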
For orientation: A western blot detects proteins with antibodies after separation by electrophoresis.

For the next assay, the system named is H2228. Put plainly: CCK-8 proliferation, NCI-H2228 (H2228). Particulars: Homo sapiens, NCI-H2228; CCK-8; 96 hours; read-out: Inhibitory activity (IC50) on tumor cell proliferation, H2228. The assay is classed as cell-based. Put shortly: as §3

Consider `CN(Cc1ccc(C2CCC(=O)NC2=O)cc1)C1CCN(c2ccc(C(N)=O)c(-c3ccc(Oc4ccccc4)cc3)n2)CC1` (stereo not shown) [GT-03828, 6-(4-((4-(2,6-dioxopiperidin-3-yl)benzyl)(methyl)amino)piperidin-1-yl)-2-(4-phenoxyphenyl)nicotinamide], for which the IC50 in the assay with MM.1R lay within 500 to 1000 nM.

The term inhibition denotes the percentage by which the read-out fell short of the control. On to `COc1cc(C(=O)NC2CCN(Cc3cccc(N4CCC(=O)NC4=O)c3)CC2)c(F)cc1Nc1ncc(C(F)(F)F)c(Oc2cccc3c2C(=O)N(C)C3)n1` [GT-04257, N-(1-(3-(2,4-dioxotetrahydropyrimidin-1(2H)-yl)benzyl)piperidin-4-yl)-2-fluoro-5-methoxy-4-((4-((2-methyl-3-oxoisoindolin-4-yl)oxy)-5-(trifluoromethyl)pyrimidin-2-yl)amino)benzamide], for which the IC50 in the assay on MM.1R was in the range of 100 to 500 nM; in the assay with SW620 it was 500 to 1000 nM; with CCRF-CEM it was 100 to 500 nM; in the assay on Jurkat, 100 to 500 nM. Besides, in [1] (at 0.5µM, read-out: Inhibition rate (%) at 0.5µM), the inhibition at 0.5 µM lay within 60 to 80%. Moreover, the inhibition at 2 µM in assay [1] (at 2 µM, read-out: Inhibition rate (%) at 2 µM) lay in the range of 80 to 100%.

Turning to `COc1cc(N2CCC(N3CCN(Cc4cccc(N5CCC(=O)NC5=O)c4)CC3)CC2)c(C)cc1Nc1ncc(Br)c(Nc2ccc3nccnc3c2P(C)(C)=O)n1` [GT-04260, 1-(3-((4-(1-(4-((5-bromo-4-((5-(dimethylphosphoryl)quinoxalin-6-yl)amino)pyrimidin-2-yl)amino)-5-methoxy-2-methylphenyl)piperidin-4-yl)piperazin-1-yl)methyl)phenyl)dihydropyrimidine-2,4(1H,3H)-dione], the IC50 was in the range of 50 to 100 nM in the assay on PC-9, 50 to 100 nM in the assay on H1975, 100 to 500 nM in assay [2] and 50 to 100 nM in the assay on HCC827. In addition, the “Degradation of substrate protein EGFR (substrate protein remaining %)” value (“Degradation … (substrate protein remaining %)” for short) in the assay with EGFR is reported as “A (A is defined as 0% ≤ substrate protein remaining % ≤ 80%)”.

As to `NC(=O)c1ncc(N2CCCCC2)nc1Nc1ccc(C2CCN(Cc3ccc(C4CCC(=O)NC4=O)cc3)CC2)cc1` (stereo not shown) [GT-04785, 3-((4-(1-(4-(2,6-dioxopiperidin-3-yl)benzyl)piperidin-4-yl)phenyl)amino)-5-(piperidin-1-yl)pyrazine-2-carboxamide], the IC50 fell in the range of 100 to 500 nM in the assay on H2228; 100 to 500 nM in the assay with PC-9; 500 to 1000 nM in the assay on H1975; 100 to 500 nM in the assay with MM.1R; 500 to 1000 nM in the assay on SW620.

As to `NC(=O)c1ncc(N2CCCCC2)nc1Nc1ccc(C2CCN(Cc3cccc(N4CCC(=O)NC4=O)c3)CC2)cc1` [GT-04787, 3-((4-(1-(3-(2,4-dioxotetrahydropyrimidin-1(2H)-yl)benzyl)piperidin-4-yl)phenyl)amino)-5-(piperidin-1-yl)pyrazine-2-carboxamide], the IC50 fell in the range of 100 to 500 nM with H2228, 100 to 500 nM in the assay with PC-9, 500 to 1000 nM with H1975 and 500 to 1000 nM in the assay on MM.1R.

Turning to `NC(=O)c1ncc(N2CCCCC2)nc1Nc1ccc(C2CCN(Cc3cccc(NC4CCC(=O)NC4=O)c3)CC2)cc1` (stereo not shown) [GT-04791, 3-((4-(1-(3-((2,6-dioxopiperidin-3-yl)amino)benzyl)piperidin-4-yl)phenyl)amino)-5-(piperidin-1-yl)pyrazine-2-carboxamide], the IC50 is 100 to 500 nM in the assay with H2228, 500 to 1000 nM with PC-9, less than 1 nM with MM.1R and 500 to 1000 nM in the assay with SW620.

As for `CN1CCN([C@@H]2CCCN(c3cnc(C(N)=O)c(Nc4ccc(C5CCN(Cc6cccc(N7CCC(=O)NC7=O)c6)CC5)cc4)n3)C2)C1=O` [GT-04800, (R)-3-((4-(1-(3-(2,4-dioxotetrahydropyrimidin-1(2H)-yl)benzyl)piperidin-4-yl)phenyl)amino)-5-(3-(3-methyl-2-oxoimidazolidin-1-yl)piperidin-1-yl)pyrazine-2-carboxamide], the results for the IC50 in the assay with H2228, in the assay with PC-9 and in the assay on MM.1R were 500 to 1000 nM, 100 to 500 nM and 500 to 1000 nM, respectively.

Turning to `CN1CCN([C@@H]2CCCN(c3cnc(C(N)=O)c(Nc4ccc(C5CCN(Cc6ccc(N7CCC(=O)NC7=O)cc6)CC5)cc4)n3)C2)C1=O` [GT-04802, (R)-3-((4-(1-(4-(2,4-dioxotetrahydropyrimidin-1(2H)-yl)benzyl)piperidin-4-yl)phenyl)amino)-5-(3-(3-methyl-2-oxoimidazolidin-1-yl)piperidin-1-yl)pyrazine-2-carboxamide], the IC50 lay in the range of 100 to 500 nM with H2228, 100 to 500 nM in the assay on PC-9, 500 to 1000 nM with H1975 and 100 to 500 nM in the assay with MM.1R.

In the case of `CN1CCN([C@@H]2CCCN(c3cnc(C(N)=O)c(Nc4ccc(C5CCN(Cc6ccc(N7CCC(=O)NC7=O)cc6F)CC5)cc4)n3)C2)C1=O` [GT-04803, (R)-3-((4-(1-(4-(2,4-dioxotetrahydropyrimidin-1(2H)-yl)-2-fluorobenzyl)piperidin-4-yl)phenyl)amino)-5-(3-(3-methyl-2-oxoimidazolidin-1-yl)piperidin-1-yl)pyrazine-2-carboxamide], the IC50 in the assay with H2228 was 100 to 500 nM; with PC-9 it was 100 to 500 nM; in the assay on H1975, 500 to 1000 nM; in the assay on MM.1R, 100 to 500 nM; in the assay with SW620, 100 to 500 nM.

With `O=C1CCC(c2ccc(CN3CCN(C4CCN(c5ccc(Nc6ncc7nc(Nc8ccccc8)n(C8CCCC8)c7n6)cc5)CC4)CC3)cc2)C(=O)N1` (stereo not shown) [GT-05915, 3-(4-((4-(1-(4-((9-cyclopentyl-8-(phenylamino)-9H-purin-2-yl)amino)phenyl)piperidin-4-yl)piperazin-1-yl)methyl)phenyl)piperidine-2,6-dione], the IC50 was in the range of 1 to 10 nM in the assay with PC-9, 50 to 100 nM with H1975, 500 to 1000 nM in [2] and 1 to 10 nM in the assay on HCC827. Besides, the “Degradation … (substrate protein remaining %)” value in the assay on EGFR was “A (A is defined as 0% ≤ substrate protein remaining % ≤ 80%)”.

Regarding `O=C1CCN(c2ccc(CN3CCN(C4CCN(c5ccc(Nc6ncc7nc(Nc8ccccc8)n(C8CCCC8)c7n6)cc5)CC4)CC3)cc2)C(=O)N1` [GT-05917, 1-(4-((4-(1-(4-((9-cyclopentyl-8-(phenylamino)-9H-purin-2-yl)amino)phenyl)piperidin-4-yl)piperazin-1-yl)methyl)phenyl)dihydropyrimidine-2,4(1H,3H)-dione], the IC50 with PC-9 lay in the range of 1 to 10 nM; in the assay with H1975, 100 to 500 nM; in [2], 500 to 1000 nM; in the assay with HCC827 it was 1 to 10 nM. Moreover, the “Degradation … (substrate protein remaining %)” value with EGFR is recorded as “A (A is defined as 0% ≤ substrate protein remaining % ≤ 80%)”.

For `COc1cc(N2CCN(Cc3ccc(N4CCC(=O)NC4=O)nc3)CC2)c(C)cc1Nc1ncc(Br)c(Nc2ccc3nccnc3c2P(C)(C)=O)n1` [GT-05947, 1-(5-((4-(4-((5-bromo-4-((5-(dimethylphosphoryl)quinoxalin-6-yl)amino)pyrimidin-2-yl)amino)-5-methoxy-2-methylphenyl)piperazin-1-yl)methyl)pyridin-2-yl)dihydropyrimidine-2,4(1H,3H)-dione], the IC50 with PC-9 lay within 50 to 100 nM; with H1975, 100 to 500 nM; in assay [2], 100 to 500 nM; in the assay on HCC827 it was 100 to 500 nM. The “Degradation … (substrate protein remaining %)” value with EGFR is “A (A is defined as 0% ≤ substrate protein remaining % ≤ 80%)”.
